# According to PubChem BioAssay (NCI):
#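 Cells were grown in 96-well plates and exposed to each compound for 48 hours at five concentrations; endpoints were interpolated linearly between bracketing concentrations, or set to the highest concentration if not reached. TGI marks complete inhibition of growth.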 Square brackets hold non-standard residues; d marks the D form. Peptide text beside a SMILES is read from it. * marks the point of attachment. Boc = CC(C)(C)OC(=O)*; OBn = c1ccc(CO*)cc1
# How the values were obtained:
# Test in all cases: NCI tumour cell line growth inhibition, 48 h
# OVCAR-3 ovarian = system: OVCAR-3 ovarian
# SK-OV-3 ovarian = system: SK-OV-3 ovarian
# HOP-92 NSCLC = system: HOP-92 NSCLC
# U251 CNS = system: U251 CNS
# SF-295 CNS = system: SF-295 CNS
# CCRF-CEM leukemia = system: CCRF-CEM leukemia
# SNB-75 CNS = system: SNB-75 CNS
# SF-268 CNS = system: SF-268 CNS
# A549 NSCLC = system: A549 NSCLC
# ACHN renal = system: ACHN renal
# HS 578T breast = system: HS 578T breast
# DU-145 prostate = system: DU-145 prostate
# HT29 colon = system: HT29 colon
# NCI-H522 lung = system: NCI-H522 lung
# HCT-116 colon = system: HCT-116 colon
# HCT-15 colon = system: HCT-15 colon
# M14 melanoma = system: M14 melanoma
# IGROV1 ovarian = system: IGROV1 ovarian
# UO-31 renal = system: UO-31 renal
# RXF 393 renal = system: RXF 393 renal
# UACC-257 melanoma = system: UACC-257 melanoma
# SK-MEL-28 melanoma = system: SK-MEL-28 melanoma
# COLO 205 colon = system: COLO 205 colon
# MDA-MB-231 breast = system: MDA-MB-231 breast
# NCI/ADR-RES ovarian = system: NCI/ADR-RES ovarian
# SW-620 colon = system: SW-620 colon
# CAKI-1 renal = system: CAKI-1 renal
# SR leukemia = system: SR leukemia
# BT-549 breast = system: BT-549 breast
# MDA-MB-435 = system: MDA-MB-435
# PC-3 prostate = system: PC-3 prostate
# LOX IMVI melanoma = system: LOX IMVI melanoma
# MALME-3M melanoma = system: MALME-3M melanoma
# SK-MEL-2 melanoma = system: SK-MEL-2 melanoma
# SN12C renal = system: SN12C renal
# KM12 colon = system: KM12 colon
# HOP-62 NSCLC = system: HOP-62 NSCLC
# SNB-19 CNS = system: SNB-19 CNS
# SK-MEL-5 melanoma = system: SK-MEL-5 melanoma
# OVCAR-4 ovarian = system: OVCAR-4 ovarian
# MDA-N = system: MDA-N
# NCI-H23 lung = system: NCI-H23 lung
# RPMI-8226 leukemia = system: RPMI-8226 leukemia
# EKVX NSCLC = system: EKVX NSCLC
# OVCAR-5 ovarian = system: OVCAR-5 ovarian
# TK-10 renal = system: TK-10 renal
# A498 renal = system: A498 renal
# UACC-62 melanoma = system: UACC-62 melanoma
# K-562 leukemia = system: K-562 leukemia
# NCI-H226 lung = system: NCI-H226 lung
# 786-0 renal = system: 786-0 renal
# OVCAR-8 ovarian = system: OVCAR-8 ovarian
# T-47D breast = system: T-47D breast
# MOLT-4 leukemia = system: MOLT-4 leukemia
# MCF7 breast = system: MCF7 breast
# SF-539 CNS = system: SF-539 CNS
# HL-60(TB) leukemia = system: HL-60(TB) leukemia
structure (smiles),measurement,setting,value
CC(C)(C)/C(O)=C\c1nc2ccc(C(F)(F)F)cc2[nH]c1=O,TGI,OVCAR-3 ovarian,> 100 µM
same,TGI,SK-OV-3 ovarian,> 100 µM
same,TGI,HOP-92 NSCLC,> 100 µM
same,TGI,U251 CNS,> 100 µM
same,TGI,SF-295 CNS,> 100 µM
same,TGI,CCRF-CEM leukemia,> 100 µM
same,TGI,SNB-75 CNS,> 100 µM
same,TGI,SF-268 CNS,> 100 µM
same,TGI,A549 NSCLC,> 100 µM
same,TGI,ACHN renal,> 100 µM
same,TGI,HS 578T breast,> 100 µM
same,TGI,DU-145 prostate,> 100 µM
same,TGI,HT29 colon,> 100 µM
same,TGI,NCI-H522 lung,> 100 µM
same,TGI,HCT-116 colon,> 100 µM
same,TGI,HCT-15 colon,> 100 µM
same,TGI,M14 melanoma,> 100 µM
same,TGI,IGROV1 ovarian,> 100 µM
same,TGI,UO-31 renal,> 100 µM
same,TGI,RXF 393 renal,> 100 µM
same,TGI,UACC-257 melanoma,> 100 µM
same,TGI,SK-MEL-28 melanoma,> 100 µM
same,TGI,COLO 205 colon,> 100 µM
same,TGI,MDA-MB-231 breast,> 100 µM
same,TGI,NCI/ADR-RES ovarian,> 100 µM
same,TGI,SW-620 colon,> 100 µM
same,TGI,CAKI-1 renal,> 100 µM
same,TGI,SR leukemia,> 100 µM
same,TGI,BT-549 breast,> 100 µM
same,TGI,MDA-MB-435,> 100 µM
same,TGI,PC-3 prostate,> 100 µM
same,TGI,LOX IMVI melanoma,> 100 µM
same,TGI,MALME-3M melanoma,> 100 µM
same,TGI,SK-MEL-2 melanoma,> 100 µM
same,TGI,SN12C renal,> 100 µM
same,TGI,KM12 colon,> 100 µM
same,TGI,HOP-62 NSCLC,> 100 µM
same,TGI,SNB-19 CNS,> 100 µM
same,TGI,SK-MEL-5 melanoma,> 100 µM
same,TGI,OVCAR-4 ovarian,> 100 µM
same,TGI,MDA-N,> 100 µM
same,TGI,NCI-H23 lung,> 100 µM
same,TGI,RPMI-8226 leukemia,> 100 µM
same,TGI,EKVX NSCLC,> 100 µM
same,TGI,OVCAR-5 ovarian,> 100 µM
same,TGI,TK-10 renal,> 100 µM
same,TGI,A498 renal,> 100 µM
same,TGI,UACC-62 melanoma,> 100 µM
same,TGI,K-562 leukemia,> 100 µM
same,TGI,NCI-H226 lung,> 100 µM
same,TGI,786-0 renal,> 100 µM
same,TGI,OVCAR-8 ovarian,> 100 µM
same,TGI,T-47D breast,> 100 µM
same,TGI,MOLT-4 leukemia,> 100 µM
C[C@@H](NC(=O)CNC(=O)OC(C)(C)C)C(=O)N[C@@H](Cc1ccccc1)C(=O)OCc1ccccc1 (Boc-Gly-[dA]-Phe-OBn),TGI,SK-OV-3 ovarian,> 100 µM
same,TGI,HOP-92 NSCLC,45.3 µM
same,TGI,U251 CNS,> 100 µM
same,TGI,SF-295 CNS,> 100 µM
same,TGI,MCF7 breast,> 100 µM
same,TGI,CCRF-CEM leukemia,67 µM
same,TGI,SNB-75 CNS,> 100 µM
same,TGI,SF-268 CNS,> 100 µM
same,TGI,A549 NSCLC,> 100 µM
same,TGI,ACHN renal,> 100 µM
same,TGI,HS 578T breast,71.2 µM
same,TGI,DU-145 prostate,> 100 µM
same,TGI,HT29 colon,> 100 µM
same,TGI,NCI-H522 lung,80.4 µM
same,TGI,HCT-116 colon,> 100 µM
same,TGI,HCT-15 colon,> 100 µM
same,TGI,M14 melanoma,44.7 µM
same,TGI,IGROV1 ovarian,> 100 µM
same,TGI,UO-31 renal,> 100 µM
same,TGI,RXF 393 renal,> 100 µM
same,TGI,UACC-257 melanoma,> 100 µM
same,TGI,SK-MEL-28 melanoma,39.4 µM
same,TGI,COLO 205 colon,32.7 µM
same,TGI,MDA-MB-231 breast,> 100 µM
same,TGI,NCI/ADR-RES ovarian,> 100 µM
same,TGI,SW-620 colon,> 100 µM
same,TGI,CAKI-1 renal,> 100 µM
same,TGI,SR leukemia,88.9 µM
same,TGI,SF-539 CNS,> 100 µM
same,TGI,BT-549 breast,> 100 µM
same,TGI,MDA-MB-435,> 100 µM
same,TGI,PC-3 prostate,> 100 µM
same,TGI,LOX IMVI melanoma,58 µM
same,TGI,MALME-3M melanoma,32.6 µM
same,TGI,SK-MEL-2 melanoma,> 100 µM
same,TGI,SN12C renal,> 100 µM
same,TGI,KM12 colon,> 100 µM
same,TGI,SNB-19 CNS,> 100 µM
same,TGI,SK-MEL-5 melanoma,42.2 µM
same,TGI,OVCAR-4 ovarian,> 100 µM
same,TGI,MDA-N,> 100 µM
same,TGI,NCI-H23 lung,> 100 µM
same,TGI,EKVX NSCLC,> 100 µM
same,TGI,OVCAR-5 ovarian,> 100 µM
same,TGI,TK-10 renal,> 100 µM
same,TGI,UACC-62 melanoma,> 100 µM
same,TGI,K-562 leukemia,64.4 µM
same,TGI,NCI-H226 lung,> 100 µM
same,TGI,786-0 renal,> 100 µM
same,TGI,OVCAR-8 ovarian,> 100 µM
same,TGI,T-47D breast,> 100 µM
same,TGI,HL-60(TB) leukemia,> 100 µM
same,TGI,MOLT-4 leukemia,88.1 µM
